Measured values published in patent US20070289032A1, “AGROBACTERIUM TRANSFORMATION OF GUAR” (SAMUEL ROBERTS NOBEL FOUNDATION, priority 2006, published 2007).

Columns and labels:
Assay type in all cases: cell-based, Cyamopsis tetragonoloba
regenerated guar shoots = assay: Root induction from regenerated guar shoots; details: regenerated guar shoots in rooting medium
Source text: Root induction from the regenerated shoots. Non-transgenic shoots (two weeks old) from the shoot elongation medium were subjected to two different rooting procedures. Five 10 mm long shoots were harvested from the shoot elongation medium (SEM), the basal region was cut in order to remove any callus or necrotic tissue and the shoot ends were dipped either in a lawn of Agrobacterium rhizogenes (strain ARqua1) and transferred to root induction medium 1 (Farhaeus medium (Dazzo and Hubbell, 1982) solidified with 0.9-1.0% Gelrite) or directly transferred to root induction medium 2 (½ MS salts, Gamborg's B5 vitamins, 2.5% sucrose, 0.5-2.00 mg/l indole 3-butyric acid (IBA), agar 0.8%, pH 5.8) without any Agrobacterium rhizogenes inoculum. To prepare the A. rhizogenes lawn, a single colony was inoculated in 2 ml liquid Farhaeus medium containing 250 mg/l streptomycin in a 10 ml culture tube and cultured for 2-3 days at 28° C. on a rotary shaker. When the O.D. (600 nm) reached 1.0, 50-120 μl of the suspension was spread on a solid Farhaeus plate containing 250 mg/l streptomycin and 0.3% Gelrite. Within 3 days the bacteria formed a lawn on the plate which was subsequently used for infecting the shoot bases. Roots developed within 4 weeks and the rooted plants were transferred to the soil and grown in a growth chamber at 30° C. and 12 hrs of light.
Study of root anatomy. […]

[1] = tested on: cotyledonary node explants of guar variety Lewis; assay: Multiple shoot regeneration from cotyledonary node explants on B5 medium with growth regulators (Lewis); details: percentage of explants that formed shoots; B5 shoot initiation medium, hormone concentrations in μM
Description: (§1) Explant preparation. Guar seeds of two American cultivars (Lewis and Kinman; e.g. (Undersander et al., 1991) were surface sterilized in concentrated sulphuric acid for 10 min followed by four washes in ice cold sterile distilled water. Subsequently the seeds were treated with 10% commercial bleach (containing 6.0% free chlorine) for 5 min with a few drops of Tween 20 and washed thoroughly three to four times in sterile distilled water. The sterile seeds were sown in magenta boxes on MS medium (Murashige and Skoog, 1962) with 3% sucrose, 0.8% agar, pH 5.8, and germination was continued for 7-9 days under a 16 h/8 h day/night regime at 25° C. Three-four mm long cotyledonary node explants comprising the meristematic zone were excised from the seedlings and used for shoot regeneration and transformation.
(§2) Shoot regeneration. Shoot regeneration was performed in two different phases; shoot initiation and shoot elongation. For shoot initiation, […] cotyledonary node explants were cultured with the adaxial surface touching the medium in Petri plates (FIG. 1A). The explants were cultured on Gamborg's B5 medium (Gamborg et al., 1968), supplemented with 3% (w/v) sucrose, 0.8% Phyto agar (Caisson Laboratories Inc.), pH 5.8 (shoot initiation medium, SIM) with different combinations of growth regulators (Table 1). […]

[2] = tested on: cotyledonary node explants of guar variety Kinman; assay: Multiple shoot regeneration from cotyledonary node explants on B5 medium with growth regulators (Kinman); details: percentage of explants that formed shoots; B5 shoot initiation medium, hormone concentrations in μM
Description: as §1, §2

| Structure (SMILES) | shoots that formed callus at the base (regenerated guar shoots) | Shoot morphogenesis frequency (%) in the genotype Lewis [1] [%] | Shoot morphogenesis frequency (%) in the genotype Kinman [2] [%] |
| --- | --- | --- | --- |
| O=C(O)CCCc1c[nH]c2ccccc12 [IBA, indole 3-butyric acid] | more than 90% | – | – |
| O=C(Nc1ccccc1)Nc1cnns1 [TDZ 9.10, Thidiazuron] | – | 31.67 | 33.33 |
| c1ccc(CNc2ncnc3nc[nH]c23)cc1 [BAP 4.44, 6-benzylaminopurine] | – | 25.89 | 26.49 |
